Data reported in article PMC11001709, “Anti-toxoplasma activity and DNA-binding of copper(II) and zinc(II) coordination compounds with 5-nitroimidazole-based ligands” (Journal of Biological Inorganic Chemistry, 2023).

Legend:
[1] = Distribution coefficient LogD7.4, shake-flask 1-octanol/MOPS buffer; format: physicochemical; conditions: octanol/water (MOPS buffer 10^–2 M), 25 °C, 3 h
Procedure: Solutions between 100 and 10 µM of the free ligands (cenz and onz) and the coordination compounds 3–10 were prepared in a MOPS buffer pH 7.4 as the aqueous phase and in 1-octanol as the organic phase. The absorption at 320 nm and 310 nm was determined for the aqueous and organic phase respectively by electronic spectroscopy (UV–Vis). Through a linear regression (concentration vs. absorption) the molar extinction coefficient of each compound in both phases was determined (Table 3). The lipophilicity was calculated in the 1-octanol/water system from the shake flask method using Eq. 1 [39]:1 […] where, Co is the final concentration in the organic phase and Cw is the final concentration in the aqueous phase (MOPS buffer at 10^–2 M pH 7.4). Both phases were presaturated with 50 µM solutions of the free ligands or 500 µM of each coordination compound and their UV spectrum was recorded. Both phases were combined and kept stirring for 3 h at 25 °C and in the absence of light. Subsequently, the mixture was centrifuged at 400g and the concentration in both phases was determined by UV–Vis spectroscopy using the Beer-Lambert law. The assays were performed in triplicate.
The T gondii parasite is an apicomplex organism; it requires a host cell to live, so it is important that the drugs used against the parasite have easy access to the cell. The lipophilicity of a compound is an important physicochemical property to determine its ability to permeate the biological membrane through passive diffusion; which usually is measured from the distribution coefficient logD7.4 = log(Co/Cw), in n-octanol/water. The shake-flask method was used to determine the LogD7.4 values from the molar extinction coefficients of the coordination compounds and the ligands in the two solvents (Table 3).

ct-DNA = test: Competitive displacement of Hoechst 33258 from DNA (fluorescence); format: binding, calf; conditions: Hoechst 33258 1.9 µM, [DNA]b = 30 µM, compound 0-50 µM, 1 h
Procedure: For the UV–Vis, fluorescence and circular dichroism assays the concentration of ct-DNA was determined on a Varian Cary 100 Scan spectrophotometer from the absorption at 260 nm and the corresponding molar absorptivity of 6600 M^−1 cm^−1 (nucleobase concentration). The stock solutions of the coordination compounds and the free ligands were prepared in cacodylate/NaCl buffer (1 mM cacodylic acid and 20 mM sodium chloride) at pH 7.25. The final samples contained a DMSO concentration of 0.2%.
Emission intensity of the dyes DNA-intercalator ethidium bromide, EB (λexc = 514 nm) and the minor-groove binder Hoechst 33,258 (λexc = 350 nm) was measured on iHR320 HORIBA JOBIN YVON spectrofluorometer. The samples contained 15 µM (in base pairs) of ct-DNA and 75 µM of EB […] in cacodylate/NaCl buffer. The respective dye was incubated for 30 min with ct-DNA to allow its binding to the biomolecule. Subsequently, increasing amounts of coordination compounds (0–50 µM) were added up to a final volume of 2 mL, and the samples were incubated for 1 h at 37 °C. The fluorescence spectra of all samples were recorded at room temperature. The affinity of the compounds for ct-DNA compared to EB was evaluated through the Stern–Volmer quenching constant Ksv, from Eq. 3:3 I0/I=1+Ksvcompound where I0 and I are the emission intensities in absence and the presence of the compound, respectively.
Competitive binding assays were carried out with Hoechst 33,258. This dye binds to B-DNA, especially those with an AT-rich sequence giving a fluorescent signal at 458 nm when excited at 350 nm. As for to the EB assays, DNA (30 µM) was incubated for 30 min with Hoechst 33,258 (1.9 µM) and increasing amounts of the coordination compounds were subsequently added. In all cases, fluorescence quenching was observed (Fig. 9). As previously, the Ksv constants were determined (Fig. 9c and Table 4). The copper(II) compounds show Ksv values in the […] range (Table 4), indicating a groove binding behavior. For the zinc(II) compounds, the Ksv values are two orders of magnitude lower indicating weaker interactions, must likely of electrostatic nature.

pBR322 plasmid DNA = test: Agarose gel electrophoresis, DNA cleavage; format: biochemical
Procedure: Electrophoresis assays were performed in 1.5% agarose gel and 1× TBE buffer using the DNA plasmid pBR322. The plasmid (15 µM base pairs) was incubated with 10 and 50 μM concentrations of the coordination compounds for 1 h at 37 °C in presence and absence of ascorbic acid (50 μM) as reducing agent and hydrogen peroxide (500 µM) as ROS generator in a final volume of 20 μL. The DNA-cleaving compound [Cu(phen)2(H2O)](NO3)2 was used as reference. The samples were loaded into the gel with 4 μL of a loading buffer (30% glycerol, 5 mM xylene cyanol), and electrophoresis was performed in 1× TBE at 100 V for 1 h in a Bio-Rad horizontal tank. Subsequently, the gel was stained with SYBR™ Safe overnight and images were acquired with a Gel Doc EZ Imager instrument (Bio-Rad).
Distinct forms of pBR322 plasmid DNA are commonly observed by gel electrophoresis due to the conformational changes that present distinct electrophoretic mobility: (1) supercoiled DNA (Form I) that migrates faster on the gel, (2) circular nicked (Form II), obtained from a one-strand scission, has a slower migration through the gel and (3) linear form (Form III) is generated when both strands are cleaved and migrates between forms I and II [54]. The interaction of the free ligands and their copper(II) and zinc(II) coordination compounds with pBR322 was investigated in presence of H2Asc (50 μM) as reducing agent and H2O2 (500 μM) as ROS generator. Solutions of 10 and 50 µM of the coordination compounds were incubated with the DNA at 37 °C for 1 h.

[2] = compound 10 (mM in the source), + H2Asc
[3] = compound 10 (mM in the source), + H2Asc + H2O2
[4] = compound 10 (mM in the source), + H2O2
[5] = compound 10 (mM in the source), no additive
[6] = compound 50 (mM in the source), + H2Asc
[7] = compound 50 (mM in the source), + H2Asc + H2O2
[8] = compound 50 (mM in the source), + H2O2
[9] = compound 50 (mM in the source), no additive

Row | Compound | LogD7.4 [1] | Hoechst 33258 Ksv (ct-DNA) [M⁻¹] | %Damage (pBR322 plasmid DNA; [2]) [%] | %Supercoiled (pBR322 plasmid DNA; [2]) [%] | %Damage (pBR322 plasmid DNA; [3]) [%] | %Damage (pBR322 plasmid DNA; [4]) [%] | %Nicked (pBR322 plasmid DNA; [4]) [%] | %Supercoiled (pBR322 plasmid DNA; [4]) [%] | %Damage (pBR322 plasmid DNA; [5]) [%] | %Nicked (pBR322 plasmid DNA; [5]) [%] | %Supercoiled (pBR322 plasmid DNA; [5]) [%] | %Damage (pBR322 plasmid DNA; [6]) [%] | %Damage (pBR322 plasmid DNA; [7]) [%] | %Damage (pBR322 plasmid DNA; [8]) [%] | %Damage (pBR322 plasmid DNA; [9]) [%] | %Nicked (pBR322 plasmid DNA; [9]) [%] | %Supercoiled (pBR322 plasmid DNA; [9]) [%] | %Nicked (pBR322 plasmid DNA; [2]) [%] | %Nicked (pBR322 plasmid DNA; [3]) [%] | %Supercoiled (pBR322 plasmid DNA; [3]) [%] | also measured
1 | Cc1ncc([N+](=O)[O-])n1CCCl.Cc1ncc([N+](=O)[O-])n1CCCl.[Br][Cu][Br] [[Cu(cenz)2Br2]] | 0.62 | 2.1e+06 | 43.90 | 56.10 | 100.00 | 84.00 | 37.10 | 16.00 | 37.80 | 11.30 | 62.20 | 100.00 | 100.00 | 100.00 | 33.80 | 7.50 | 66.20 | – | – | – | –
2 | Cc1ncc([N+](=O)[O-])n1CCCl.Cc1ncc([N+](=O)[O-])n1CCCl.[Cl][Cu][Cl] [[Cu(cenz)2Cl2]] | 0.69 | 1.6e+06 | 33.20 | 66.80 | 100.00 | 83.50 | 84.30 | 16.50 | 12.00 | – | 88.00 | 100.00 | 100.00 | 100.00 | 31.50 | – | 68.50 | 16.60 | – | – | –
3 | Cc1n(CC(O)CCl)c([N+](=O)[O-])c[n+]1[Cu-2]([Br])([Br])[n+]1cc([N+](=O)[O-])n(CC(O)CCl)c1C (centres unmarked) [[Cu(onz)2Br2]] | 0.56 | 2.5e+06 | 44.70 | 55.30 | 100.00 | 100.00 | – | – | 7.80 | – | 92.20 | 100.00 | 100.00 | 100.00 | 6.70 | 23.00 | 93.30 | 35.60 | – | – | –
4 | Cc1ncc([N+](=O)[O-])n1CC(O)CCl.Cc1ncc([N+](=O)[O-])n1CC(O)CCl.[Cl-].[Cl-].[Cu+2] (centres unmarked) [[Cu(onz)2Cl2]] | 0.61 | 1.2e+06 | 58.10 | 41.90 | 80.60 | 16.40 | 6.10 | 83.60 | 36.40 | 6.40 | 63.60 | 100.00 | 100.00 | 100.00 | 33.80 | 9.70 | 66.20 | 33.00 | 46.50 | 19.40 | –
5 | Cc1ncc([N+](=O)[O-])n1CCCl.Cc1ncc([N+](=O)[O-])n1CCCl.[Br][Zn][Br] [[Zn(cenz)2Br2]] | 0.82 | 120000 | 28.40 | 71.60 | 89.00 | 19.30 | 27.20 | 80.70 | 6.20 | 3.00 | 93.80 | 96.10 | 78.40 | 98.40 | 11.60 | 2.20 | 88.40 | 6.40 | 75.80 | 11.00 | %Nicked (pBR322 plasmid DNA; [6]): 39.50%; %Supercoiled (pBR322 plasmid DNA; [6]): 3.90%; %Nicked (pBR322 plasmid DNA; [7]): 10.40%; %Supercoiled (pBR322 plasmid DNA; [7]): 21.60%; %Nicked (pBR322 plasmid DNA; [8]): 63.30%; %Supercoiled (pBR322 plasmid DNA; [8]): 1.60%
6 | Cc1ncc([N+](=O)[O-])n1CC(O)CCl.Cc1ncc([N+](=O)[O-])n1CC(O)CCl.[Cl][Zn][Cl] (centres unmarked) [[Zn(onz)2Cl2]] | 0.90 | 38000 | 91.2 | 8.80 | 67.90 | 10.80 | 5.90 | 89.20 | 14.6 | – | 85.40 | 100 | 100.00 | 78.30 | 32.9 | 3.90 | 67.10 | 65.70 | 44.00 | 32.10 | %Nicked (pBR322 plasmid DNA; [6]): 4.80%; %Nicked (pBR322 plasmid DNA; [8]): 47.60%; %Supercoiled (pBR322 plasmid DNA; [8]): 21.70%
